Reference: patent publication US20250092056A1, “URACIL DERIVATIVES HAVING VIRUS REPLICATION INHIBITORY ACTIVITY AND PHARMACEUTICAL COMPOSITION COMPRISING THE SAME” (Shionogi & Co., Ltd., priority 2022, published 2025)

System: SARS-CoV-2
Experiment: Cytopathic effect (CPE) suppression effect confirmation test using HEK293T/ACE2-TMPRSS2 cells
Format: cell-based
Details: Severe acute respiratory syndrome coronavirus 2, HEK-293T, 72 h, read-out: EC50 (50% SARS-CoV-2 infected cell death inhibitory concentration), HEK293T/ACE2-TMPRSS2 cells, CPE suppression, CellTiter-Glo 2.0 after 3 days culture

SMILES | EC50 [nM]
N#CCn1c(N2CC[C@@](O)(C(F)F)C2)c(-c2ccc(F)c(Cl)c2)c(=O)n(-c2cncc(Cl)c2)c1=O (single isomer, unassigned) [Compound I-238] | 4.62
N#CCn1c(N2CC3(C2)CC(O)(c2ccccc2)C3)c(-c2ccc(F)c(Cl)c2)c(=O)n(-c2cncc(Cl)c2)c1=O [Compound I-259] | 5.44
COc1ccc(Oc2c(Cc3cc(F)c(F)c(F)c3)c(=O)n(-c3cncc(C)c3)c(=O)n2CC#N)cc1 [Compound I-202] | 613

Same assay, conditions: Severe acute respiratory syndrome coronavirus 2, HEK-293T, 72 h, read-out: EC50 (50% SARS-CoV-2 infected cell death inhibitory concentration), class, HEK293T/ACE2-TMPRSS2 cells, CPE suppression, CellTiter-Glo 2.0 after 3 days culture

SMILES | EC50 [nM]
Cc1cncc(-n2c(=O)c(-c3ccc(F)c(Cl)c3)c(-c3cc4ccccc4s3)n(CC#N)c2=O)c1 [Compound I-020] | < 100
Cn1c(-n2c(=O)c(Cc3cc(F)c(F)c(F)c3)c(N3Cc4ccccc4C3)n(CC#N)c2=O)cc(=O)n1C [Compound I-157] | 1000 to 5000
Cc1cncc(-n2c(=O)c(Cc3cc(F)c(F)c(F)c3)c(N3CCC(C(F)F)CC3)n(CC#N)c2=O)c1 [Compound I-118] | < 100
N#CCn1c(N2CC3(CCOC3)C2)c(Cc2cc(F)c(F)c(F)c2)c(=O)n(-c2nsc3ccccc23)c1=O [Compound I-143] | 1000 to 5000
Cc1cncc(-n2c(=O)c(-c3ccc(F)c(Cl)c3)c(-c3ccc(C(F)(F)F)c(Cl)c3)n(CC#N)c2=O)c1 [Compound I-066] | < 100
Cc1cncc(-n2c(=O)c(Cc3cc(F)c(F)c(F)c3)c(N3CCC(CO)CC3)n(CC#N)c2=O)c1 [Compound I-104] | < 100
N#CCn1c(N2CC(F)(C3CC3)C2)c(-c2ccc(F)c(Cl)c2)c(=O)n(-c2cncc(Cl)c2)c1=O [Compound I-076] | < 100
Cc1cncc(-n2c(=O)c(Cc3cc(F)c(F)c(F)c3)c(N3CCC(C)(F)C3)n(CC#N)c2=O)c1 (racemic) [Compound I-115] | < 100
N#CCn1c(N2CC3(CCOC3)C2)c(-c2ccc(F)c(Cl)c2)c(=O)n(-c2cnc3cc(Cl)ccn23)c1=O [Compound I-131] | < 100
N#CCn1c(N2CC3CCC(CC3)C2)c(Cc2cc(F)c(F)c(F)c2)c(=O)n(-c2cnc3ccccn23)c1=O [Compound I-038] | < 100
N#CCn1c(N2CC3(CCOC3)C2)c(Cc2cc(F)c(F)c(F)c2)c(=O)n(-c2cncnc2)c1=O [Compound I-007] | 100 to 1000
Cc1cncc(-n2c(=O)c(Cc3cc(F)c(F)c(F)c3)c(N3CC4(C3)CC(F)(F)C4)n(CC#N)c2=O)c1 [Compound I-105] | < 100
Cc1cncc(-n2c(=O)c(-c3ccc(F)c(Cl)c3)c(N3Cc4cccnc4C3)n(CC#N)c2=O)c1 [Compound I-075] | < 100
Cc1cncc(-n2c(=O)c(-c3ccc(F)c(Cl)c3)c(-c3ccc(C4CC4)cc3)n(CC#N)c2=O)c1 [Compound I-071] | < 100
N#CCn1c(N2CC3(CCOC3)C2)c(Cc2cc(F)c(F)c(F)c2)c(=O)n(-c2cnc3cccnn23)c1=O [Compound I-144] | 100 to 1000
Cc1cncc(-n2c(=O)c(Cc3cc(F)c(F)c(F)c3)c(N3CCC(C(N)=O)C3)n(CC#N)c2=O)c1 (racemic) [Compound I-100] | < 100
COc1ccc(Oc2c(-c3cccc4ccccc34)c(=O)n(-c3cncc(C)c3)c(=O)n2CC#N)cc1 [Compound I-009] | 100 to 1000
Cc1cncc(-n2c(=O)c(Cc3cc(F)c(F)c(F)c3)c(/C=C/CO)n(CC#N)c2=O)c1 [Compound I-047] | 100 to 1000

Same assay, conditions: Severe acute respiratory syndrome coronavirus 2, HEK-293T, 72 h; HEK293T/ACE2-TMPRSS2 cells, CPE suppression, CellTiter-Glo 2.0 after 3 days culture; read-out: EC50 (50% SARS-CoV-2 infected cell death inhibitory concentration), class

SMILES | EC50 [nM]
N#CCn1c(N2CC3(CCOC3)C2)c(Cc2cc(F)c(F)c(F)c2)c(=O)n(-c2cnc3ccccn23)c1=O [Compound I-037] | 100 to 1000
Cc1cncc(-n2c(=O)c(Cc3cc(F)c(F)c(F)c3)c(N3CCC4(CCC(=O)N4)C3)n(CC#N)c2=O)c1 (racemic) [Compound I-094] | 100 to 1000
CC(C)(C)OC(=O)C(C#N)n1c(N2CCC(C(F)(F)F)CC2)c(-c2ccc(F)c(Cl)c2)c(=O)n(-c2cncc(Cl)c2)c1=O (racemic) [Compound I-050] | < 100
N#CCn1c(N2CC(C(F)(F)F)C2)c(-c2ccc(F)c(Cl)c2)c(=O)n(-c2cnc3cc(Cl)ccn23)c1=O [Compound I-139] | < 100

Biological target: Recombinant SARS-CoV-2 3CL Protease (Severe acute respiratory syndrome coronavirus 2 (2019-nCoV) (SARS-CoV-2), UniProt P0DTD1)
Experiment: biochemical
Format: biochemical
Details: not given

SMILES | IC50 [nM]
N#CCn1c(N2CC3CCC(CC3)C2)c(Cc2cc(F)c(F)c(F)c2)c(=O)n(-c2cnc3ccccn23)c1=O [Compound I-038] | 10 to 100

Same assay, conditions: 50% SARS-CoV-2 3CL protease inhibitory concentration; read-out: IC50

SMILES | IC50 [nM]
N#CCn1c(N2CC[C@@](O)(C(F)F)C2)c(-c2ccc(F)c(Cl)c2)c(=O)n(-c2cncc(Cl)c2)c1=O (single isomer, unassigned) [Compound I-238] | 0.97
Cc1cncc(-n2c(=O)c(-c3ccc(F)c(Cl)c3)c(-c3cc4ccccc4s3)n(CC#N)c2=O)c1 [Compound I-020] | < 10
Cn1c(-n2c(=O)c(Cc3cc(F)c(F)c(F)c3)c(N3Cc4ccccc4C3)n(CC#N)c2=O)cc(=O)n1C [Compound I-157] | > 100
Cc1cncc(-n2c(=O)c(Cc3cc(F)c(F)c(F)c3)c(N3CCC(C(F)F)CC3)n(CC#N)c2=O)c1 [Compound I-118] | < 10
N#CCn1c(N2CC3(CCOC3)C2)c(Cc2cc(F)c(F)c(F)c2)c(=O)n(-c2nsc3ccccc23)c1=O [Compound I-143] | > 100
Cc1cncc(-n2c(=O)c(-c3ccc(F)c(Cl)c3)c(-c3ccc(C(F)(F)F)c(Cl)c3)n(CC#N)c2=O)c1 [Compound I-066] | < 10
N#CCn1c(N2CC3(CCOC3)C2)c(Cc2cc(F)c(F)c(F)c2)c(=O)n(-c2cnc3ccccn23)c1=O [Compound I-037] | 10 to 100
Cc1cncc(-n2c(=O)c(Cc3cc(F)c(F)c(F)c3)c(N3CCC(CO)CC3)n(CC#N)c2=O)c1 [Compound I-104] | < 10
Cc1cncc(-n2c(=O)c(Cc3cc(F)c(F)c(F)c3)c(N3CCC4(CCC(=O)N4)C3)n(CC#N)c2=O)c1 (racemic) [Compound I-094] | 10 to 100
N#CCn1c(N2CC(F)(C3CC3)C2)c(-c2ccc(F)c(Cl)c2)c(=O)n(-c2cncc(Cl)c2)c1=O [Compound I-076] | < 10
Cc1cncc(-n2c(=O)c(Cc3cc(F)c(F)c(F)c3)c(N3CCC(C)(F)C3)n(CC#N)c2=O)c1 (racemic) [Compound I-115] | < 10
N#CCn1c(N2CC3(CCOC3)C2)c(-c2ccc(F)c(Cl)c2)c(=O)n(-c2cnc3cc(Cl)ccn23)c1=O [Compound I-131] | < 10
N#CCn1c(N2CC3(C2)CC(O)(c2ccccc2)C3)c(-c2ccc(F)c(Cl)c2)c(=O)n(-c2cncc(Cl)c2)c1=O [Compound I-259] | 0.45
N#CCn1c(N2CC3(CCOC3)C2)c(Cc2cc(F)c(F)c(F)c2)c(=O)n(-c2cncnc2)c1=O [Compound I-007] | > 100
CC(C)(C)OC(=O)C(C#N)n1c(N2CCC(C(F)(F)F)CC2)c(-c2ccc(F)c(Cl)c2)c(=O)n(-c2cncc(Cl)c2)c1=O (racemic) [Compound I-050] | 10 to 100
Cc1cncc(-n2c(=O)c(Cc3cc(F)c(F)c(F)c3)c(N3CC4(C3)CC(F)(F)C4)n(CC#N)c2=O)c1 [Compound I-105] | < 10
Cc1cncc(-n2c(=O)c(-c3ccc(F)c(Cl)c3)c(N3Cc4cccnc4C3)n(CC#N)c2=O)c1 [Compound I-075] | < 10
Cc1cncc(-n2c(=O)c(-c3ccc(F)c(Cl)c3)c(-c3ccc(C4CC4)cc3)n(CC#N)c2=O)c1 [Compound I-071] | < 10
N#CCn1c(N2CC(C(F)(F)F)C2)c(-c2ccc(F)c(Cl)c2)c(=O)n(-c2cnc3cc(Cl)ccn23)c1=O [Compound I-139] | 10 to 100
N#CCn1c(N2CC3(CCOC3)C2)c(Cc2cc(F)c(F)c(F)c2)c(=O)n(-c2cnc3cccnn23)c1=O [Compound I-144] | > 100
Cc1cncc(-n2c(=O)c(Cc3cc(F)c(F)c(F)c3)c(N3CCC(C(N)=O)C3)n(CC#N)c2=O)c1 (racemic) [Compound I-100] | < 10
COc1ccc(Oc2c(Cc3cc(F)c(F)c(F)c3)c(=O)n(-c3cncc(C)c3)c(=O)n2CC#N)cc1 [Compound I-202] | 37
COc1ccc(Oc2c(-c3cccc4ccccc34)c(=O)n(-c3cncc(C)c3)c(=O)n2CC#N)cc1 [Compound I-009] | > 100
Cc1cncc(-n2c(=O)c(Cc3cc(F)c(F)c(F)c3)c(/C=C/CO)n(CC#N)c2=O)c1 [Compound I-047] | > 100
